Values after ≈ are worked out from the molar mass of the structure shown.
Legend:
Plasmodium falciparum [1] = assay: In vitro inhibitory concentration against Plasmodium falciparum W2 Indochina; assay type: functional, organism-based
Plasmodium falciparum [2] = assay: In vitro inhibitory concentration against Plasmodium falciparum D6 (Sierra Leone); assay type: functional, organism-based
Mus musculus [3] = assay: T/C is life span of treated mice/control at a compound dose of 4 (mg/kg); assay type: functional
Mus musculus [4] = assay: T/C is life span of treated mice/control at a compound dose of 64 (mg/kg); assay type: functional
Mus musculus [5] = species on record: Mus musculus; assay: Dose that causes 50% suppression of Plasmodium berghei parasitaemia in the treated mice (Mus musculus) compared to untreated controls.; assay type: functional
Mus musculus [6] = assay: T/C is life span of treated mice/control at a compound dose of 16 (mg/kg); assay type: functional
Mus musculus [7] = species on record: Mus musculus; assay: Dose that causes 90% suppression of Plasmodium berghei parasitaemia in the treated mice (Mus musculus) compared to untreated controls.; assay type: functional
Mus musculus [8] = assay: T/C is life span of treated mice/control at a compound dose of 16,(mg/kg); assay type: functional

Compound	IC50 (Plasmodium falciparum [1])	IC50 (Plasmodium falciparum [2])	T/C (Mus musculus [3])	T/C (Mus musculus [4])	SD50 (Mus musculus [5])	T/C (Mus musculus [6])	SD90 (Mus musculus [7])	T/C (Mus musculus [8])
COC(=O)CC[C@@H](O[C@H]1O[C@@H]2O[C@@]3(C)CC[C@H]4[C@H](C)CCC([C@H]1C)[C@@]24OO3)c1ccc(Cl)cc1 (stereo not given in full)	0.656 ng/mL (≈ 1.33 nM)	0.391 ng/mL (≈ 0.79 nM)						
COC(=O)CC[C@@H](O[C@@H]1O[C@@H]2O[C@@]3(C)CC[C@H]4[C@H](C)CCC([C@H]1C)[C@@]24OO3)c1ccc(Cl)cc1 (stereo not given in full)	0.629 ng/mL (≈ 1.27 nM)	0.728 ng/mL (≈ 1.47 nM)						
C[C@@H]1CCC2[C@@H](C)[C@H](OC(CCC(=O)O)c3ccc(Br)cc3)O[C@@H]3OC4(C)CC[C@@H]1C23OO4 (stereo not given in full)	0.313 ng/mL (≈ 0.596 nM)	0.405 ng/mL (≈ 0.771 nM)	2.7 days	5.8 days	16.26 mg/kg	3.5 days	48.18 mg/kg	
COC(=O)CCC(O[C@@H]1O[C@@H]2OC3(C)CC[C@H]4[C@H](C)CCC([C@H]1C)C24OO3)c1ccc(OC)cc1 (stereo not given in full)	0.647 ng/mL (≈ 1.32 nM)	0.827 ng/mL (≈ 1.68 nM)						
C[C@H]1C(Oc2ccc(C(=O)[O-])cc2)O[C@@H]2O[C@]3(C)CC[C@H]4[C@H](C)CCC1C24OO3.[Na+] (stereo not given in full)				4.3 days	56 mg/kg	2.7 days		
C[C@@H]1CCC2[C@@H](C)[C@H](OC(CCC(=O)O)c3ccc(F)cc3)O[C@@H]3OC4(C)CC[C@@H]1C23OO4 (stereo not given in full)	1.34 ng/mL (≈ 2.88 nM)	2.21 ng/mL (≈ 4.76 nM)	1.5 days	3.3 days	28.16 mg/kg	2.8 days	58.07 mg/kg	
COc1ccc(C(CCC(=O)O)O[C@@H]2O[C@@H]3OC4(C)CC[C@H]5[C@H](C)CCC([C@H]2C)C35OO4)cc1 (stereo not given in full)	3.45 ng/mL (≈ 7.24 nM)	3.82 ng/mL (≈ 8.01 nM)	1.7 days	4 days	25.06 mg/kg	2.5 days	54.99 mg/kg	
C[C@@H]1CCC2[C@@H](C)[C@@H](OC(CCC(=O)O)c3ccc(Cl)cc3)O[C@@H]3OC4(C)CC[C@@H]1C23OO4 (stereo not given in full)	1.26 ng/mL (≈ 2.62 nM)	2.4 ng/mL (≈ 5 nM)						
COC(=O)CCC(O[C@@H]1O[C@@H]2OC3(C)CC[C@H]4[C@H](C)CCC([C@H]1C)C24OO3)c1ccc(Br)cc1 (stereo not given in full)	0.543 ng/mL (≈ 1.01 nM)	0.673 ng/mL (≈ 1.25 nM)						
C[C@@H]1CCC2[C@@H](C)[C@@H](OC(CCC(=O)O)c3ccc(Br)cc3)O[C@@H]3OC4(C)CC[C@@H]1C23OO4 (stereo not given in full)	0.419 ng/mL (≈ 0.797 nM)	1.36 ng/mL (≈ 2.59 nM)						
COC(=O)CCC(O[C@@H]1O[C@@H]2OC3(C)CC[C@H]4[C@H](C)CCC([C@H]1C)C24OO3)c1ccc(F)cc1 (stereo not given in full)	0.398 ng/mL (≈ 0.832 nM)	0.43 ng/mL (≈ 0.9 nM)						
C[C@@H]1CCC2[C@@H](C)[C@H](OC(CCC(=O)O)c3ccc(Cl)cc3)O[C@@H]3OC4(C)CC[C@@H]1C23OO4 (stereo not given in full)	0.357 ng/mL (≈ 0.742 nM)	0.38 ng/mL (≈ 0.79 nM)	2.3 days	4.8 days	14.39 mg/kg		45.04 mg/kg	3.8 days
COC(=O)CCC(O[C@H]1O[C@@H]2OC3(C)CC[C@H]4[C@H](C)CCC([C@H]1C)C24OO3)c1ccc(Cl)cc1 (stereo not given in full)	0.794 ng/mL (≈ 1.6 nM)	0.903 ng/mL (≈ 1.82 nM)						
COC(=O)CCC(O[C@H]1O[C@@H]2OC3(C)CC[C@H]4[C@H](C)CCC([C@H]1C)C24OO3)c1ccc(Br)cc1 (stereo not given in full)	0.62 ng/mL (≈ 1.15 nM)	1.01 ng/mL (≈ 1.87 nM)						
COC(=O)CCC(O[C@H]1O[C@@H]2OC3(C)CC[C@H]4[C@H](C)CCC([C@H]1C)C24OO3)c1ccc(F)cc1 (stereo not given in full)	0.488 ng/mL (≈ 1.02 nM)	0.616 ng/mL (≈ 1.29 nM)						
C[C@@H]1CCC2[C@@H](C)[C@@H](OC(CCC(=O)O)c3ccc(F)cc3)O[C@@H]3OC4(C)CC[C@@H]1C23OO4 (stereo not given in full)	0.828 ng/mL (≈ 1.78 nM)	2.33 ng/mL (≈ 5.02 nM)						
C[C@@H]1CC[C@H]2[C@@H](C)C(=O)O[C@@H]3O[C@@]4(C)CC[C@@H]1[C@]32OO4 [ARTEMISININ]	2.14 ng/mL (≈ 7.57 nM)	3.91 ng/mL (≈ 13.9 nM)						
